In patent US12144788B2, “Visual cycle modulators” (CASE WESTERN RESERVE UNIVERSITY, priority 2017, dated 2024):

Columns and labels:
[1] = quantification of MB-005 in mouse eyes by LC-ESI-MS/MS; type: in vivo; conditions: 1 mg dose oral gavage
Description: MB-005 (1 mg/mouse) was administrated by oral gavage to C57BL/6J mice, which were then kept in the dark for 4-24 h. Then, mice were euthanized, and their eyes were homogenized in 1 ml of 10 mM sodium phosphate buffer, pH 7.4, containing 50% methanol (v/v). The resulting mixture was extracted with 4 ml EtOAc. […] This solution (100 μl) was analyzed by liquid chromatography—electrospray ionization—MS/MS (LC-ESI-MS/MS) (4.6 mm×150 mm; Agilent ZORBAX Eclipse XDB-C18) with a gradient of acetonitrile in water (0%-100% in 30 min) as the eluent at a flow rate of 0.5 ml/min.
To confirm the ocular distribution of this compound series, we directly measured the quantity of MB-005 in the eye by mass spectrometry after a 1 mg dose. […] This minimal change in ocular MB-005 concentration contrasts with the ˜3-fold greater inhibition of visual cycle function observed at 4 h versus 24 h for this compound.

Abca4−/−Rdh8−/− mice = test: protection against light-induced retinal degeneration (OCT, ONL thickness); type: in vivo, mouse
Description: FIGS. 7(A-B) illustrate protective effects of MB compounds against light-induced retinal degeneration in Abca4^−/−Rdh8^−/− mice. Drugs were administrated at the indicated doses to 4-6 week-old Abca4^−/−Rdh8^−/− mice (weight ˜20 g) by oral gavage. After a 24 h dark adaptation, mice were exposed to 10,000 lux light for 30 min and then returned to a dark environment for 3 days. (A) Representative OCT images of mice treated with MB compounds. A dramatic decrease in the ONL indicates advanced retinal degeneration. The black scale beside the DMSO image represents 50 μm. (B) Retinal protective effects exerted by MB compounds as quantified by average ONL thickness. Only non-scattering ONL layers were measured. For images in which the ONL layer boundary was obscured due to light scattering, the ONL length was recorded as 0 μm. Error bars represent standard deviations; n=3-5 for each group.
Abca4^−/−Rdh8^−/− mice on a C57BL/6J background were generated as previously described. Male and female WT mice with C57BL/6J backgrounds were obtained from The Jackson Laboratory. Abca4^−/−Rdh8^−/− mice used in this study were homozygous for the Leu450 allele of Rpe65 as determined by a genotyping protocol published previously and free of Crb1/rd8 and rd/rd mutations Animals were housed either in the animal facility at the Case Western Reserve University School of Medicine, where they received a standard chow diet (LabDiet 5053) and were maintained under a 12-h light (˜300 lux) and 12-h dark cycle or at the Cole Eye Institute animal facility where they were. Mice were dark adapted overnight prior to all experiments. A cohort of Rdh8^−/−Abca4^−/− or C57BL/6J mice was used when they reached the age of 1 to 2 months, and both sexes were used evenly. All tested primary amines were suspended in 100 μl soybean oil with less than 10% (v/v) DMSO and were administered by oral gavage with a 22-gauge feeding needle. Experimental manipulations in the dark were done under dim red light transmitted through a Kodak No. 1 Safelight Filter (transmittance >560 nm).
After dark adaptation for 24 h, Abca4^−/−Rdh8^−/− mice with pupils dilated by 1% tropicamide were exposed to fluorescent light (10,000 lux; 150 W spiral lamp; Commercial Electric) for 30 min in a white paper bucket (Papersmith) and then kept in the dark for an additional 3 days. Development of retinal degeneration was then determined by ultra-high-resolution spectral domain OCT (SD-OCT; Bioptigen) and ERG as previously described.
To examine the ability of […] cause retinal damage in the absence of treatment with protective agents. Three days later retinas were imaged in vivo by optical coherence tomography, with preservation of outer nuclear layer thickness and light scattering properties serving as markers for retinal health. MB-001, which is capable of preventing light-induced retinal degeneration through both direct RPE65 inhibition as well as retinal sequestration served as a positive control for these experiments.

C57BL/6J mice = test: in vivo dark-adapted ERG recordings after bleach; design: species or system mouse; conditions: gavage 1 day before bleach, doses indicated effective by retinoid analysis
Description: FIG. 5 illustrates ERG responses of mice treated with visual cycle modulators. Oral gavage was used to administer vehicle or MB compounds to mice 24 h prior to 10 min light exposure followed by 6 h of dark adaptation. Dark-adapted ERGs were obtained to strobe flash stimuli.
C57BL/6J mice aged 1.5-4 months were anesthetized with ketamine (80 mg/kg) and xylazine (16 mg/kg) after overnight dark adaptation. Mydriatic eye drops were used to dilate the pupil (1% tropicamide; 2.5% phenylephrine). ERGs were obtained using an active electrode that contacted the corneal surface; needle electrodes placed in the cheek and tail provided reference and ground leads, respectively. Strobe stimuli were presented to the dark-adapted eye in an LKC (Gaithersburg, MD) ganzfeld. Responses were amplified, averaged and stored using an LKC UTAS E-3000 signal averaging system.
Baseline dark-adapted ERGs were recorded from each mouse. After a minimum 1 day interval, MB compounds or vehicle were administered by gavage at 9 a.m. The next morning, mydriatic eye drops were used to dilate the pupils and mice were then exposed to a 10-minute 10,000 lux bleach. Mice were dark-adapted for 6 hours, after which ERGs were recorded.
We next examined the impact of these compounds on retinal function, measured using the electroretinogram (ERG). FIG. 5 presents a family of dark-adapted ERGs measured 6 hours after mice underwent a 95% bleach presented 1 day following gavage administration of vehicle or MB compound molecules at doses indicated to be effective by retinoid analysis. […] In comparison, mice administered with MB compound molecules had had reduced amplitude ERGs indicative of incomplete bleaching recovery. […] In response to higher luminance stimuli, reproducible responses were observed. That these reflect dark-adapted cone-mediated responses is supported by their similarity to responses obtained from transducin KO mice which lack rod-mediated activity, while retaining normal cone-mediated responses, and have a very similar ERG phenotype.

CC(C)c1cc(OCC2CCCCC2)cc(C(O)CCN)c1 (stereo not drawn) [MB-005, 3-Amino-1-(3-(cyclohexylmethoxy)-5-isopropylphenyl)propan-1-ol]
ocular level of MB-005 ([1]; 6 h after treatment): ~140 ng/eye | ocular level of MB-005 ([1]; 24 h post-treatment time point versus 6 h): declined only slightly | protective effect compared to the MB-001 control (Abca4−/−Rdh8−/− mice; 0.5 mg/mouse oral gavage 24 h before light): ~50% | protection against light-induced retinal degeneration (Abca4−/−Rdh8−/− mice; 2 mg/mouse oral gavage 24 h before light): fully protected | protective effect compared to the MB-001 control (Abca4−/−Rdh8−/− mice; doubling of 0.5 mg/mouse (1 mg/mouse), oral gavage 24 h before light): ~80% | dark-adapted ERG 6 hours after 95% bleach (C57BL/6J mice): less incomplete recovery
